Measurements as given in ChEMBL document CHEMBL5329202, “New aryl-/heteroarylpiperazine derivatives of 1,7-dimethyl-8,9-diphenyl-4-azatricyclo[5.2.1.02,6]dec-8-ene-3,5,10-trione: Synthesis and preliminary studies of biological activities” (Bioorg Med Chem, 2023).
The source made the active and inactive calls. The rule behind the calls is not given here.

Legend:
PC-3 = experiment: Antiproliferative activity against human PC-3 cells assessed as decrease in IL-6 level at IC50 measured after 72 hrs by ELISA assay relative to control; type: functional; parameters: scale not given: the % may be the effect or the level left
HaCaT = experiment: Induction of apoptosis in human HaCaT cells assessed as late apoptotic cells at IC50 incubated for 72 hrs by Annexin V-FITC/PI staining based flow cytometric analysis relative to control; type: functional
HMEC-1 = experiment: Induction of apoptosis in human HMEC-1 cells assessed as increase in caspase-3/7 activity at IC50 incubated for 24 hrs by Glo assay relative to control; type: functional
SW-620 [1] = experiment: Induction of apoptosis in human SW620 cells assessed as late apoptotic cells at IC50 incubated for 72 hrs by Annexin V-FITC/PI staining based flow cytometric analysis (reference value: 1.2 %); type: functional
SW-620 [2] = experiment: Induction of apoptosis in human SW620 cells assessed as necrotic cells at IC50 incubated for 72 hrs by Annexin V-FITC/PI staining based flow cytometric analysis (reference value: 0.7 %); type: functional
SW480 = experiment: Antiproliferative activity against human SW480 cells assessed as decrease in IL-6 level at IC50 measured after 72 hrs by ELISA assay relative to control; type: functional; parameters: scale not given: the % may be the effect or the level left
[3] = biological target: 5-hydroxytryptamine receptor 2A (Rattus norvegicus) (UniProt P14842); experiment: Displacement of [3H]ketanserin from Sprague-Dawley rat 5-HT2A receptor measured after 60 mins by competitive binding assay
Chain of 5-hydroxytryptamine receptor 2A (Rattus norvegicus) (P14842 whole entry): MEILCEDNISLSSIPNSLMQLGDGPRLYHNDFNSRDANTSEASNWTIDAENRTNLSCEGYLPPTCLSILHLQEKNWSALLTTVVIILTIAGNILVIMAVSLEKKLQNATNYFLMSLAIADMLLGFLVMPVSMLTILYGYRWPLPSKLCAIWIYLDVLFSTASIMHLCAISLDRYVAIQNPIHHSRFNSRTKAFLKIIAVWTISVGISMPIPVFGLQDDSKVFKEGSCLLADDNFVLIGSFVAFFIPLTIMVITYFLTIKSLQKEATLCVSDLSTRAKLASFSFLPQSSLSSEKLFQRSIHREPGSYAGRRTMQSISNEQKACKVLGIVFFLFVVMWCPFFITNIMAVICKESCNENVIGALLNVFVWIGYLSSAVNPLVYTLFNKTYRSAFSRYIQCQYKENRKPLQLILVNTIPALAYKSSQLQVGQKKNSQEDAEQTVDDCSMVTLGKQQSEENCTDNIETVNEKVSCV

Q: `CC12C(=O)C(C)(C(c3ccccc3)=C1c1ccccc1)C1C(=O)N(CCCCN3CCN(c4cccc(Cl)c4)CC3)C(=O)C12` (centres undefined) was tested. Which Activity (PC-3) did it give?
A: 51%

Q: For `CC12C(=O)C(C)(C(c3ccccc3)=C1c1ccccc1)C1C(=O)N(CCCCN3CCN(c4ccccc4F)CC3)C(=O)C12` (centres undefined), which Activity (HaCaT) is on record?
A: 12.3%

Q: What about the Activity (HMEC-1) of the same molecule?
A: 13%

Q: What does the source list for `COc1ccccc1N1CCN(CCCCN2C(=O)C3C(C2=O)C2(C)C(=O)C3(C)C(c3ccccc3)=C2c2ccccc2)CC1` (centres undefined)?
A: Activity (SW-620 [1]): 1.8%; Activity (SW-620 [2]): 1.4%

Q: Which Activity (SW-620 [1]) does the source give for `CC12C(=O)C(C)(C(c3ccccc3)=C1c1ccccc1)C1C(=O)N(CCCCN3CCN(c4ccccc4Cl)CC3)C(=O)C12` (centres undefined) here?
A: 2.2%

Q: What about the Activity (SW-620 [2]) of the same molecule?
A: 1.8%

Q: What about the Activity (SW480) of the same molecule?
A: 48%

Q: How did the Activity [3] turn out when `CC12C(=O)C(C)(C(c3ccccc3)=C1c1ccccc1)C1C(=O)N(CCCCN3CCN(c4ncccn4)CC3)C(=O)C12` (centres undefined) was run?
A: inactive
